The values that follow come from US11149062B2, “HDAC inhibitors and methods of treatment using the same” (UWM Research Foundation, Inc., priority 2015, dated 2021).

pIC50: −log10 of the molar value.

One data set concerns the target T1, Recombinant human HDAC2 (Homo sapiens, UniProt Q92769).
T1 construct: purchased BPS Bioscience Inc
The data set can be described thus: HDAC-Glo I/II assay, HDAC2. In kind it is biochemical. The conditions noted are these: Class I HDAC; compounds reduced by TCEP prior to assay. How it is done:
(§1) The purified compounds of all fragments and natural product derivatives were evaluated for inhibitory effects on three different classes of HDAC proteins (class I, IIa, and IIb). […] All activity was determined by using a fluorescence-based in vitro assay. Class I HDAC proteins that were evaluated were HDAC1, HDAC2, HDAC3, HDAC8, HDAC4, and HDAC6. Class IIa HDAC protein were HDAC4 and the Class IIb HDAC protein were HDAC6.
(§2) HDAC-Glo™ I/II Assay and Screening System (Promega) was used to determine the HDAC inhibitory activity. Recombinant human HDAC1, HDAC2, HDAC3, HDAC4, HDAC6 and HDAC8 were purchased from BPS Bioscience Inc. The inhibitory activities of the test compounds against recombinant HDAC were performed according to reagent suppliers' protocols.
(§3) All test compounds were firstly dissolved in DMSO to make 10 mM stock solution. A certain amount of stock solution was diluted to 1 mM by DMSO and then reduced by tris(2-carboxyethyl)phosphine hydrochloride (TCEP) in a molar ration of 1:1.5 for 20 min at ambient temperature prior to being assayed. After reduction, a series of fivefold dilutions of each reduced compound were prepared with HDAC-Glo buffer and 25 μL of each dilution was added into a well on a 96-well plate. HDAC enzymes were diluted to the desired concentrations with HDAC-Glo buffer and 25 μL of each diluted enzyme was dispensed into a well to mix with 25 μL of testing compound at room temperature for 30-60 seconds. After the reaction mixture had been incubated at room temperature for 1 hour, 50 μL of HDAC-Glo reagent was added to each reaction well and mixed up for 30-60 seconds. Finally, the plate was incubated at room temperature for an additional 30 minutes before the luminescence was measured on a Synergy HT plate reader (Bio-Tek). The luminescence intensity data were analyzed using GraphPad Prism 5 (GraphPad Software). In the absence of any test compound, the luminescence intensity (I100) in each data set was defined as 100% activity. In the absence of both of HDAC enzymes and test compound, the luminescence intensity (I0) in each data set was defined as 0% activity. The relative activity (%) in the presence of each compound was calculated according to the following equation: % activity=(I−I0)/(I100−I0), where I=the luminescence intensity if a compound is present in the reaction. Experiments were performed in triplicate and the calculated mean values were used for plotting.

The next data set addresses T2, Recombinant human HDAC3 (Homo sapiens, UniProt O15379).
T2 construct: purchased BPS Bioscience Inc
The data set can be described thus: HDAC-Glo I/II assay, HDAC3. The class given is biochemical. The conditions noted are these: Class I HDAC; compounds reduced by TCEP prior to assay. How it is done:
as §1, §2, §3

The target of the next data set is T3, Recombinant human HDAC6 (Homo sapiens, UniProt Q9UBN7).
T3 construct: purchased BPS Bioscience Inc
T3 sequence (Q9UBN7 1-1215): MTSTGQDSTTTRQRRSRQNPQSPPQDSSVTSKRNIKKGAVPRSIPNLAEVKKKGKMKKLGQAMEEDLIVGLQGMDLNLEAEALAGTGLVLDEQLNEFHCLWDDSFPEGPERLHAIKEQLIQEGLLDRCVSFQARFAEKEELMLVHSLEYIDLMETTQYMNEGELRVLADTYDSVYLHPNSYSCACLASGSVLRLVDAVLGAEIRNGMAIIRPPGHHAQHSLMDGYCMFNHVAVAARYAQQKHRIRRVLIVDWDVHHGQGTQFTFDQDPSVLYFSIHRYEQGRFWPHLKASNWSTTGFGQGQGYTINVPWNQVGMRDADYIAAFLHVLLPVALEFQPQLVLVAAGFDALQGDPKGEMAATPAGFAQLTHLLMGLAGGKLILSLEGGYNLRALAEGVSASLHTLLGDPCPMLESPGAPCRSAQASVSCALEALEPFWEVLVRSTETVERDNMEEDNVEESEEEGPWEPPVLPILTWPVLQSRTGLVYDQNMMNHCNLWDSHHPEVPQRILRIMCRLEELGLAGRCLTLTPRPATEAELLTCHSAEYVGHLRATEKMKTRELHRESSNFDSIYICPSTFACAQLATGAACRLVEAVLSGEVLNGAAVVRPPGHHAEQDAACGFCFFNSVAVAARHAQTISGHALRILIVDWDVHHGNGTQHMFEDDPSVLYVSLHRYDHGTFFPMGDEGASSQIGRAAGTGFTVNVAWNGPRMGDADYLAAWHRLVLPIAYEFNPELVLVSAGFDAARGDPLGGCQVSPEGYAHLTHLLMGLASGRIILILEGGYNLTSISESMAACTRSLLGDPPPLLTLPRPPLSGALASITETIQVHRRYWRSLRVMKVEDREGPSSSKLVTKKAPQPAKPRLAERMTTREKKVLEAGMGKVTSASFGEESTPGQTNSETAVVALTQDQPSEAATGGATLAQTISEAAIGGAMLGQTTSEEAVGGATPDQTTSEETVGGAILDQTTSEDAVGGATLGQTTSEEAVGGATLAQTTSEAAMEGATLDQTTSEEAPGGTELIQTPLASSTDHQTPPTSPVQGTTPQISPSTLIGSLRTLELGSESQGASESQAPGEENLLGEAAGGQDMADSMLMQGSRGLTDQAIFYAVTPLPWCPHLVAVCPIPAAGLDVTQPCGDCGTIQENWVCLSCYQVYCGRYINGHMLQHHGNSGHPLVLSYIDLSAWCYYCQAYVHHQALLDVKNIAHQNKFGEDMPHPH
The data set can be described thus: HDAC-Glo I/II assay, HDAC6. In kind it is biochemical. How it is done: as §1
HDAC-Glo™ I/II Assay and Screening System (Promega) was used to determine the HDAC inhibitory activity. […]
All test compounds were firstly dissolved in DMSO to make 10 mM stock solution. […] Finally, the plate was incubated at room temperature for an additional 30 minutes before the luminescence was measured on a Synergy HT plate reader (Bio-Tek). The luminescence intensity data were analyzed using GraphPad Prism 5 (GraphPad Software). In the absence of any test compound, the luminescence intensity (I100) in each data set was defined as 100% activity. In the absence of both of HDAC enzymes and test compound, the luminescence intensity (I0) in each data set was defined as 0% activity. The relative activity (%) in the presence of each compound was calculated according to the following equation: % activity=(I−I0)/(I100−I0), where I=the luminescence intensity if a compound is present in the reaction. […]

A further data set is described as follows: in vivo. The conditions noted are these: BALB/c, mouse, in vivo, ip. The text has this:
BALB/c mice were purchased from The Jackson Laboratory (Bar Harbor, Me.) and used between 7 and 10 weeks of age. Mice were housed in a conventional animal vivarium and were given free access to food and water. All studies and procedures were approved by the Animal Care and Use Committee of the University of Wisconsin, Milwaukee.
Each animal was initially weighed using a digital scale and then intraperitoneally (IP) injected with the compounds (listed in Table 2). A single mouse was given a single IP dose of 200 mg/kg, body weight, a second mouse received a dose of 100 mg/kg and a third mouse received a single dose of 50 mg/kg. The mice were observed and weighed every other day for a period of 2 weeks. They were euthanized if they lost more than 20% of their body weight or if there were other signs of significant toxicity. […] This process was repeated until a tolerated dose was found, and the MTD value was determined.
To determine the MTD in vivo, the compounds listed above were injected intraperitoneally into BALB/c mice and morbidity and mortality were monitored over two weeks.

T2 sequence (O15379 whole entry): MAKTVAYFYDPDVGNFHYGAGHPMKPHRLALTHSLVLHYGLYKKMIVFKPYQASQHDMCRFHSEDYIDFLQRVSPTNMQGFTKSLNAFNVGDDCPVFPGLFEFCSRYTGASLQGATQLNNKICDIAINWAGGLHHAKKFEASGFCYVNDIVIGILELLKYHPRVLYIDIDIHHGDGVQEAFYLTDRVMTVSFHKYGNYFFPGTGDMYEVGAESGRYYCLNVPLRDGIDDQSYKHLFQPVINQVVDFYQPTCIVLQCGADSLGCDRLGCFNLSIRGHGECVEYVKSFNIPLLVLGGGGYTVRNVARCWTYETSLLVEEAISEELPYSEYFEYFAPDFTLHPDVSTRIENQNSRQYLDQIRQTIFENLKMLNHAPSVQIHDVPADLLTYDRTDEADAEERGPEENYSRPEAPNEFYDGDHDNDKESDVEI
T2 sequence (Q9Y618 395-489 partner limits assumed): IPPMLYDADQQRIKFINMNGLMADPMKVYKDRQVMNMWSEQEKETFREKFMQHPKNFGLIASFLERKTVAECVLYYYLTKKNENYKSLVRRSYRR
T1 sequence (Q92769 whole entry): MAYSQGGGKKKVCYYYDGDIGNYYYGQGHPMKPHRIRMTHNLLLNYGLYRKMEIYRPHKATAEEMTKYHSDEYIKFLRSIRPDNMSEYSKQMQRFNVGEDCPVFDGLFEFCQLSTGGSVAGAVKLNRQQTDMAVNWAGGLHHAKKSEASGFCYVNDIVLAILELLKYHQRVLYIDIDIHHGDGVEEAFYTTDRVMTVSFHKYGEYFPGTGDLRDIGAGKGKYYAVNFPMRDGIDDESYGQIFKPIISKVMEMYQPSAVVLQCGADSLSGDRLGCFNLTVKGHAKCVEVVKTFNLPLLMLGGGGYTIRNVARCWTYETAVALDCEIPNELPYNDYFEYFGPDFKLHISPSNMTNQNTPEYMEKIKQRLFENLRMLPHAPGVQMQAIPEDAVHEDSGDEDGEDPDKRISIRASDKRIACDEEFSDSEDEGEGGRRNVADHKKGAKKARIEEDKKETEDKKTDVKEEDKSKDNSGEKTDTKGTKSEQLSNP

As for `CSCC[C@H]1NC(=O)CC(O)/C=C/CCSSC[C@H](C(=O)O)NC1=O` (stereo partly drawn) [TDF3, (4S,7R,12E)-11-hydroxy-7-[2-(methylsulfanyl)ethyl]-6,9-dioxo-1,2-dithia-5,8-diazacyclopentadec-12-ene-4-carboxylic acid], the pIC50 is 7.06 at Recombinant human HDAC2 and 6.09 at Recombinant human HDAC3. Moreover, the “inhibitory activity toward HDAC6 (in words)” value at Recombinant human HDAC6 is given as “no inhibitory activity”. Further, in “in vivo”, the MTD at 2 weeks is more than 200 mg/kg.

In the case of `COC(=O)[C@H]1CSSCC/C=C/C(O)CC(=O)N[C@H](CCSC)C(=O)N1` (stereo partly drawn) [TDF3m, Methyl (4S,7R,12E)-11-hydroxy-7-[2-(methylsulfanyl)ethyl]-6,9-dioxo-1,2-dithia-5,8-diazacyclopentadec-12-ene-4-carboxylate], the values for the negative-log IC50 (pIC50) at Recombinant human HDAC2 and on Recombinant human HDAC3 were 7.03 and 6.21, respectively. In addition, the “inhibitory activity toward HDAC6 (in words)” value on Recombinant human HDAC6 was “no inhibitory activity”. This compound gave an MTD at 2 weeks in “in vivo” of more than 200 mg/kg.

In general, pIC50 refers to the negative decadic logarithm of the IC50, by convention in mol/L.
